The subject of this assay is PMA-induced release of TGFα from PC3 cells. The experiment in a line: ELISA-based TGFα release assay, PMA-stimulated PC3 cells. Conditions: Homo sapiens, PC-3; recombinant murine antibodies 1 μg/ml; Batimastat 10 μM; PMA 25 ng/ml, 2 hours. It is filed as cell-based. The procedure:
In the following study, ELISA-based TGFα release assays were performed to analyze the inhibitory effects of the antibodies of the present disclosure on PMA-induced release of endogenous TGFα from human PC3 prostate cancer cells.
In brief, on day 1, Nunc black MaxiSorp® 96-well plates (Thermo Fisher Scientific, USA) were coated overnight with 100 μl per well of goat anti-human TGFα capture antibody (provided as part of the DuoSet ELISA kit) at 0.4 μg/ml TBS at 4° C. On day 2, the capture antibody solution was removed and MaxiSorp® plates were blocked with 300 μl per well of TBS, 1% BSA at room temperature for 3 hours. […] Using an infinite M1000 (Tecan Group, Switzerland) microplate reader, the fluorescence of each well was collected at an excitation wavelength of 435 nm and an emission wavelength of 555 nm.
A general note: In an ELISA, binding on a coated surface is turned into a signal by an enzyme label.

`CNC(=O)[C@H](Cc1ccccc1)NC(=O)[C@H](CC(C)C)[C@H](CSc1cccs1)C(=O)NO` [Batimastat]: the inhibition at 10 µM worked out at 99.1%.

What is called inhibition is the percentage by which the read-out fell short of the control.

These data come from US20240174744A1, “METHODS OF TREATMENT USING PROTEIN BINDERS TO IRHOM2 EPITOPES” (SCIRHOM GMBH, priority 2021, published 2024).
